Assay results published in PMC9048745, “Physicochemical investigation of a novel curcumin diethyl γ-aminobutyrate, a carbamate ester prodrug of curcumin with enhanced anti-neuroinflammatory activity” (PLoS ONE, 2022).
In brackets after ≈: the same amount, converted by molar mass. Like-named read-outs stand apart in the source and are kept apart here.

Experiments:
[1] = Chemical stability in aqueous buffer solutions at 37°C; assay type: physicochemical; conditions: for half-life at 10 μg/mL: read-out: t1/2, hydrolysis (converted)
Procedure: Chemical stability of CUR-2GE was performed at 37°C in aqueous buffer solutions at pH 1.2, 4.5, 6.8 and 7.4. CUR-2GE (1 mg) was dissolved in DMSO (1 mL) and adjusted with the diluent in a 5-mL volumetric flask to obtain a stock solution at 200 μg/mL. The stock solution was diluted with a pre-incubated buffer in a vial at 37°C at an initial concentration of 10 μg/mL [26]. Each sample was incubated at 37°C at appropriate intervals and analyzed using UPLC. The experiment was performed in triplicate. The hydrolytic products were also identified by comparing chromatographic retention times to curcumin and CUR-1GE. Kinetic profiles of CUR-2GE and its hydrolytic products, including curcumin and CUR-1GE, were determined by plotting percent peak area vs. incubation time. The linear slope of the natural logarithm of concentrations against time was used to calculate the degradation rate (k) and half-life (t1/2) using the linear pseudo-first-order model (see S1 Appendix). […]
The linear slopes of the natural logarithm of a concentration against time were used to calculate the degradation rate (k) for the pseudo-first-order (Eq. 5).
Ln [At] = Ln [A0] - kt (5)
Where A0 is the CUR-2GE concentration at time 0, At is the concentration of CUR-2GE at time t, and k is the degradation rate constant of CUR-2GE.
The half-lives (t1/2) of CUR-2GE were calculated by Eq. 6: […]

[2] = test system: NO production in LPS-stimulated BV-2 microglial cells; test: Nitric oxide assay (Griess reagent); assay type: cell-based, murine; conditions: 10 μM, 12 h pre-incubation, then 1 μg/mL LPS 24 h; compared with curcumin
Procedure: (§1) BV-2 microglial cells were plated in a 24-well plate at a density of 2 × 10^5 per well for 24 h. The cells were pre-incubated for 12 h with curcumin (10 μM), CUR-2GE (10 μM), medium (DMEM), or a vehicle (0.5% DMSO). The cells were then induced with 1 μg/mL LPS for 24 h. The culture medium samples were collected and analyzed for nitric oxide (NO) and cytokines (TNF- and IL-6) using NO and enzyme-linked immunoassay (ELISA) assays, respectively.
Nitric oxide (NO) production was determined by measuring nitrite, the NO metabolite, using Griess reagent. Briefly, the culture medium (100 μL) was added with 1% sulfanilamide (50 μL) and incubated for 5 min. Then, a solution of 0.1% N-(1-naphthyl)ethylenediamine dihydrochloride (50 μL) was added and incubated for 5 min. The absorbance was measured at 520 nm using the microplate reader, and the nitrite concentration was calculated against a calibration curve using NaNO₂ as a standard.

[3] = Release study in human plasma at 37°C; assay type: in vitro ADME
Procedure: The amount of curcumin released from CUR-2GE in human plasma was determined at 37°C at various time points. A stock solution of CUR-2GE (100 μg/mL) in the diluent was prepared and diluted with pre-incubated human plasma at 37°C for 5 min to obtain the final concentration of 5 μg/mL. The mixture was incubated at 37°C for 5, 10, 20, 30 and 60 min and each aliquot (300 μL) was added with 300 μL of acetonitrile to stop the reaction and further centrifugated at 4°C at 14,000 rpm for 30 min. The concentration of CUR-2GE in the supernatant was analyzed using UPLC [19, 26]. Experiments were carried out in triplicates. The initial time point (0 min) was prepared by adding 300 μL acetonitrile to the pre-incubated human plasma. The percent peak area of CUR-2GE and its hydrolytic products was plotted against incubation time. The k and t1/2 values were determined using the linear pseudo-first-order model.

[4] = test system: IL-6 release in LPS-stimulated BV-2 microglial cells; test: IL-6 ELISA; assay type: cell-based, murine; conditions: 10 μM, 12 h pre-incubation, then 1 μg/mL LPS 24 h; compared with curcumin
Procedure: as §1
Quantification of TNF-α and IL-6 was performed using commercially available ELISA kits according to the manufacturer’s protocol (BioLegend, San Diego, CA, USA). The absorbance was measured at 450 nm using the microplate reader, and the amount of TNF-α and IL-6 was determined against their corresponding standard curves of TNF-α and IL-6.

[5] = Solubility mimicking gastrointestinal pH, with and without 0.5% SLS; dose number (D0); assay type: physicochemical; conditions: for solubility at 1 h: thermodynamic from solid
Procedure: For solubility mimicking gastrointestinal pH, an excess amount of CUR-2GE (1 mg) was added to a vial containing 2 mL of buffer pH 1.2, 4.5 or 6.8 with and without a surfactant (0.5% SLS). The mixture was sonicated for 1 h before orbital shaking at 37°C at 100 rpm for 1 h. After that, the mixture was centrifuged at 25°C at 14,000 rpm for 10 min prior to UPLC analysis. Experiments were performed in triplicate. The dose number (D0) at different media was determined and the BSC solubility class was assigned. (see S1 Appendix).
S1 Appendix. Experimental procedures
The solubility category was classified according to USP [1] as very soluble (>1000 mg/mL), freely soluble (100-1000 mg/mL), soluble (33-100 mg/mL), sparingly soluble (10-33 mg/mL), slightly soluble (1-10 mg/mL), very slightly soluble (0.1-1 mg/mL) and practically […]
The percentage of CUR-2GE in the undissociated form at various pH values were calculated based on Henderson-Hasselbalch using Eq. 1:
%Undissociated form = 100 - antilog (pH-pKa) x 100 (1)
Where pH; pH value of the medium for solubilization, pKa; negative logarithm of the dissociation constant (Ka) of CUR-2GE with computed using the Marvin (Product version: 21.8.0) of ChemAxon (Budapest, Hungary) (http://www.chemaxon.com) accessed on June 2021.
The dose number (D0) was calculated to assign the BSC solubility class, the D0 for each pH buffer solution without surfactant was calculated using the following Eq. 2: […]
Where M0 is the highest dose strength (mg) of capsule equivalent to curcumin, the adopted dose of CUR-2GE is 927 mg equivalent to curcumin 500 mg dose. V0 is the initial gastric volume (≈250 mL), Cs is the saturation solubility of CUR-2GE in buffer solution without surfactant (mg/mL). Drugs with D0 < 1 in pH 1.2, 4.5 and 6.8 are considered as high solubility drugs. Drugs with D0 > 1 in any of the buffer solutions are classified as low solubility drugs.

[6] = M0 927 mg, V0 250 mL, Cs at 37°C without 0.5% SLS

**Q.** Which “hydrolysis rate in buffer pH 7.4 higher than pH 1.2” value ([1]; 37°C) does the source give for `CCOC(=O)CCCNC(=O)Oc1ccc(/C=C/C(=O)/C=C(O)/C=C/c2ccc(OC(=O)NCCCC(=O)OCC)c(OC)c2)cc1OC` [CUR-2GE, Curcumin diethyl γ-aminobutyrate] here?
**A.** 262 folds

**Q.** What about the “hydrolysis rate in buffer pH 7.4 higher than pH 4.5” value ([1]; 37°C) of the same compound?
**A.** 778 folds

**Q.** What about the “hydrolysis rate in buffer pH 7.4 higher than pH 6.8” value ([1]; 37°C) of the same compound?
**A.** 1.94 folds

**Q.** What about the half-life at 10 μg/mL ([1]; aqueous buffer pH 1.2, buffer pH 1.2, 37°C) of the same compound?
**A.** 11.9 ± 0.14 h

**Q.** And the half-life at 10 μg/mL ([1]; aqueous buffer pH 4.5, buffer pH 4.5, 37°C)?
**A.** 36.4 ± 8.53 h

**Q.** And the half-life at 10 μg/mL ([1]; aqueous buffer pH 6.8, buffer pH 6.8, 37°C)?
**A.** 0.09 ± 0.01 h

**Q.** And the half-life at 10 μg/mL ([1]; aqueous buffer pH 7.4, buffer pH 7.4, 37°C)?
**A.** 0.045 ± 0.002 h

**Q.** And the “k, pseudo-first-order hydrolysis” value ([1]; buffer pH 1.2, 37°C)?
**A.** 0.0583 ± 0.0007 h⁻¹

**Q.** And the “k, pseudo-first-order hydrolysis” value ([1]; buffer pH 4.5, 37°C)?
**A.** 0.020 ± 0.004 h⁻¹

**Q.** What about the “k, pseudo-first-order hydrolysis” value ([1]; buffer pH 6.8, 37°C) of the same compound?
**A.** 7.89 ± 0.54 h⁻¹

**Q.** What about the “k, pseudo-first-order hydrolysis” value ([1]; buffer pH 7.4, 37°C) of the same compound?
**A.** 15.31 ± 0.70 h⁻¹

**Q.** And the “inhibition of NO production” value [2]?
**A.** to a greater extent than curcumin

**Q.** What about the “rate in human plasma lower than that in buffer pH 7.4” value [3] of the same compound?
**A.** approximately 8.7 fold

**Q.** What about the “k, pseudo-first-order hydrolysis” value ([3]; human plasma) of the same compound?
**A.** 1.76 ± 0.30 h⁻¹

**Q.** And the “time for sequential conversion to CUR-1GE and curcumin in plasma” value ([3]; human plasma)?
**A.** ≤ 1 h

**Q.** What about the half-life at 5 μg/mL ([3]; human plasma, read-out: t1/2, hydrolysis (converted)) of the same compound?
**A.** 24 ± 4.8 min

**Q.** What about the “inhibition of IL-6 release” value [4] of the same compound?
**A.** to a greater extent than curcumin

**Q.** And the “Solubility, buffer pH 1.2” value ([5]; 37°C, without SLS, <LOQ refers to less than 0.05 μg/mL)?
**A.** <LOQ

**Q.** And the “D0 x 10^3 (dose number), buffer pH 1.2” value [5, 6]?
**A.** 74.16 x 10^3

**Q.** And the “D0 x 10^3 (dose number), buffer pH 4.5” value [5, 6]?
**A.** 5.80 x 10^3

**Q.** And the “D0 x 10^3 (dose number), buffer pH 6.8” value [5, 6]?
**A.** 10.89 x 10^3

**Q.** And the “degradation during solubility test” value ([5]; all media except buffer pH 1.2 with SLS)?
**A.** less than 10%

**Q.** And the “degradation during solubility test” value ([5]; buffer pH 1.2 with SLS, 37°C)?
**A.** more than 10%

**Q.** What about the solubility at 1 h ([5]; buffer pH 4.5 with 0.5% SLS, pH 4.5, aqueous with cosolvent or surfactant or cyclodextrin, 37°C + 0.5% SLS, read-out: Solubility, buffer pH 4.5) of the same compound?
**A.** 23.35 ± 0.18 µg/mL

**Q.** And the solubility at 1 h ([5]; buffer pH 4.5 without SLS, pH 4.5, aqueous buffer, 37°C, without SLS, read-out: Solubility, buffer pH 4.5)?
**A.** 0.64 ± 0.51 µg/mL (≈ 0.937 µM)

**Q.** And the solubility at 1 h ([5]; buffer pH 6.8 with 0.5% SLS, pH 6.8, aqueous with cosolvent or surfactant or cyclodextrin, 37°C + 0.5% SLS, read-out: Solubility, buffer pH 6.8)?
**A.** 148 ± 38.5 µg/mL

**Q.** What about the solubility at 1 h ([5]; buffer pH 6.8 without SLS, pH 6.8, aqueous buffer, 37°C, without SLS, read-out: Solubility, buffer pH 6.8) of the same compound?
**A.** 0.34 ± 0.5 µg/mL (≈ 0.498 µM)

**Q.** What about the solubility at 1 h ([5]; buffers pH 1.2, 4.5 and 6.8 without surfactant, aqueous buffer, pH 1.2-6.8, 37°C, without SLS, read-out: Solubility in buffers at all tested pH) of the same compound?
**A.** < 1 µg/mL

**Q.** And the “D0 (dose number) in buffers at all tested pH” value ([5]; pH 1.2-6.8, 37°C, without SLS)?
**A.** > 1
